Here are results for one compound from patent publication US20250170153A1, “METHODS FOR THE TREATMENT OF ANXIETY DISORDER” (ANANDA SCIENTIFIC, INC., priority 2022, published 2025).

The nature of series [1]: Chemical characteristics of composition A′, concentrated and diluted forms. The class given is physicochemical. Here is the method:
Several tests were conducted to determine the chemical characteristics of composition A′, both in concentrated and diluted forms. […] All liquid nanodomain droplets range in size from 5 to 20 nm. The pH of both the concentrate and diluted formulations is between 6.0 and 7.5.

For series [2] the following is noted: rat, 120 mg/kg dose; cited from earlier work.

As a reminder, the logP is the decadic logarithm of the partition coefficient of the neutral form, usually between octanol and water. A lower logP goes with lower lipophilicity. `C=C(C)[C@@H]1CCC(C)=C[C@H]1c1c(O)cc(CCCCC)cc1O` [CBD, 2-(1R,6R)-3-methyl-6-prop-1-en-2-ylcyclohex-2-en-1-yl-5-pentylbenzene-1,3-diol] showed a logP in series [1] of 6. For the same compound, in series [1] (both concentrated and diluted forms of composition A′), the “Association of CBD with formulation phases during storage” value is “remained associated with the surfactant and lipid phases”. Besides, the T1/2 in series [2] was 4 to 5 h.
